Marks after values point to notes of the source that are not given here.
System: neuron apoptosis-operated rats
Assay: Example 1 water tank task (cognitive motor behavior)
Type: in vivo, Sprague-Dawley (SD) rats
Method: Cognitive testing was conducted using the water tank task (J Neurosci Methods. 11:47-60(1984)). 14 and 28 after neuron apoptosis, the rats were given a series of 3 trials, 10 min apart in a large dark-colored tank (150 cm in diameters×50 cm in height) filled with clear water at a temperature of 22.0±1.0° C. A 15×30 cm submerged platform (2 mm below water surface) was placed in the northwest quadrant of the pool. The release point was always the southern end of the pool. The rats were lowered into the pool facing the wall and were released. The swim paths of the rats for each trials were recorded with a computer interfaced camera tracking system (Smart junior, PanLab, Spain), and the distances (m) and times (sec) taken to reach the escape platform were measured.
All data were expressed as mean±standard deviation (S.D.) of ten rats. Multiple comparison tests for different dose groups were conducted. Variance homogeneity was examined using the Levene test (Levene A, Clin Otalary, 1981; 6:145-51). […] Statistical analyses were conducted using SPSS (Release 14K, SPSS Inc., USA; Ludbrook, Clin Exp Pharmacol Physiol, 1997; 24:294-6). In addition, the percent changes between neuron apoptosis control and mirodenafil treated rats were calculated to help the understanding of the efficacy of test material as follow equation 3. Percentage changes as compared with neuron apoptosis control (%)=[((Data of mirodenafil treated groups−Data of neuron apoptosis control)/Data of neuron apoptosis control)×100] [EQUATION 3]

[1] = 0.5 mg/kg s.c. once a day, at 14 days, Mean of trials
[2] = 0.5 mg/kg s.c. once a day, at 14 days, trial 1
[3] = 0.5 mg/kg s.c. once a day, at 14 days, trial 2
[4] = 0.5 mg/kg s.c. once a day, at 14 days, trial 3
[5] = 0.5 mg/kg s.c. once a day, at 28 days, Mean of trials
[6] = 0.5 mg/kg s.c. once a day, at 28 days, trial 1
[7] = 0.5 mg/kg s.c. once a day, at 28 days, trial 2
[8] = 0.5 mg/kg s.c. once a day, at 28 days, trial 3
[9] = 1 mg/kg s.c. once a day, at 14 days, Mean of trials
[10] = 1 mg/kg s.c. once a day, at 14 days, trial 1
[11] = 1 mg/kg s.c. once a day, at 14 days, trial 2
[12] = 1 mg/kg s.c. once a day, at 14 days, trial 3
[13] = 1 mg/kg s.c. once a day, at 28 days, Mean of trials
[14] = 1 mg/kg s.c. once a day, at 28 days, trial 1
[15] = 1 mg/kg s.c. once a day, at 28 days, trial 2
[16] = 1 mg/kg s.c. once a day, at 28 days, trial 3
[17] = 2 mg/kg s.c. once a day, at 14 days, Mean of trials
[18] = 2 mg/kg s.c. once a day, at 14 days, trial 1
[19] = 2 mg/kg s.c. once a day, at 14 days, trial 2
[20] = 2 mg/kg s.c. once a day, at 14 days, trial 3
[21] = 2 mg/kg s.c. once a day, at 28 days, Mean of trials
[22] = 2 mg/kg s.c. once a day, at 28 days, trial 1
[23] = 2 mg/kg s.c. once a day, at 28 days, trial 2
[24] = 2 mg/kg s.c. once a day, at 28 days, trial 3

CCCOc1ccc(S(=O)(=O)N2CCN(CCO)CC2)cc1-c1nc2c(CCC)cn(CC)c2c(=O)[nH]1 [Mirodenafil, mirodenafil]
The distance to reach the escape platform [1]: 13.36 ± 0.81^a m
The time to reach the escape platform [1]: 119.6 ± 9.53^ad sec
The distance to reach the escape platform [2]: 15.89 ± 1.14 m
The time to reach the escape platform [2]: 149.8 ± 11.05^a sec
The distance to reach the escape platform [3]: 13.35 ± 1.02^ad m
The time to reach the escape platform [3]: 118.0 ± 10.38^ad sec
The distance to reach the escape platform [4]: 10.83 ± 0.85^a m
The time to reach the escape platform [4]: 91.0 ± 11.49^ac sec
The distance to reach the escape platform [5]: 11.38 ± 0.76^ac m
The time to reach the escape platform [5]: 92.1 ± 9.98^ac sec
The distance to reach the escape platform [6]: 13.24 ± 0.83^ad m
The time to reach the escape platform [6]: 113.7 ± 9.57^ac sec
The distance to reach the escape platform [7]: 11.22 ± 1.08^ad m
The time to reach the escape platform [7]: 88.5 ± 12.48^ac sec
The distance to reach the escape platform [8]: 9.68 ± 0.75^ef m
The time to reach the escape platform [8]: 74.1 ± 10.58^ac sec
distances to reach the escape platform, change as compared with neuron apoptosis control (0.5 mg/kg, trial 1 of 28 days): −9.80%
time to reach the escape platform, change as compared with neuron apoptosis control (0.5 mg/kg, trial 1 of 28 days): −11.45%
distances to reach the escape platform, change as compared with neuron apoptosis control (0.5 mg/kg, trial 2 of 14 days): −7.93%
time to reach the escape platform, change as compared with neuron apoptosis control (0.5 mg/kg, trial 2 of 14 days): −10.47%
distances to reach the escape platform, change as compared with neuron apoptosis control (0.5 mg/kg, trial 2 of 28 days): −14.02%
time to reach the escape platform, change as compared with neuron apoptosis control (0.5 mg/kg, trial 2 of 28 days): −22.23%
distances to reach the escape platform, change as compared with neuron apoptosis control (0.5 mg/kg, trial 3 of 14 days): −9.42%
time to reach the escape platform, change as compared with neuron apoptosis control (0.5 mg/kg, trial 3 of 14 days): −18.37%
distances to reach the escape platform, change as compared with neuron apoptosis control (0.5 mg/kg, trial 3 of 28 days): −17.56%
time to reach the escape platform, change as compared with neuron apoptosis control (0.5 mg/kg, trial 3 of 28 days): −29.16%
The distance to reach the escape platform [9]: 12.83 ± 1.29^ac m
The time to reach the escape platform [9]: 116.7 ± 6.30^ac sec
The distance to reach the escape platform [10]: 15.93 ± 1.21 m
The time to reach the escape platform [10]: 150.9 ± 9.00^a sec
The distance to reach the escape platform [11]: 12.89 ± 1.61^ac m
The time to reach the escape platform [11]: 115.3 ± 8.19^ac sec
The distance to reach the escape platform [12]: 9.66 ± 1.42^ac m
The time to reach the escape platform [12]: 83.9 ± 10.10^ac sec
The distance to reach the escape platform [13]: 9.39 ± 1.33^ac m
The time to reach the escape platform [13]: 81.0 ± 8.68^ac sec
The distance to reach the escape platform [14]: 12.65 ± 1.24^ac m
The time to reach the escape platform [14]: 106.6 ± 10.52^bc sec
The distance to reach the escape platform [15]: 9.33 ± 2.17^ac m
The time to reach the escape platform [15]: 78.4 ± 13.55^ac sec
The distance to reach the escape platform [16]: 6.19 ± 1.93^ef m
The time to reach the escape platform [16]: 58.1 ± 9.22^ac sec
distances to reach the escape platform, change as compared with neuron apoptosis control (1 mg/kg, trial 1 of 28 days): −13.80%
time to reach the escape platform, change as compared with neuron apoptosis control (1 mg/kg, trial 1 of 28 days): −16.98%
distances to reach the escape platform, change as compared with neuron apoptosis control (1 mg/kg, trial 2 of 14 days): −11.07%
time to reach the escape platform, change as compared with neuron apoptosis control (1 mg/kg, trial 2 of 14 days): −12.52%
time to reach the escape platform, change as compared with neuron apoptosis control (1 mg/kg, trial 2 of 28 days): −31.11%
distances to reach the escape platform, change as compared with neuron apoptosis control (1 mg/kg, trial 3 of 14 days): −19.20%
time to reach the escape platform, change as compared with neuron apoptosis control (1 mg/kg, trial 3 of 14 days): −24.82%
distances to reach the escape platform, change as compared with neuron apoptosis control (1 mg/kg, trial 3 of 28 days): −47.33%
time to reach the escape platform, change as compared with neuron apoptosis control (1 mg/kg, trial 3 of 28 days): −44.46%
The distance to reach the escape platform [17]: 12.79 ± 0.64^ac m
The time to reach the escape platform [17]: 116.6 ± 10.88^ac sec
The distance to reach the escape platform [18]: 16.18 ± 1.49 m
The time to reach the escape platform [18]: 151.2 ± 10.59^a sec
The distance to reach the escape platform [19]: 12.68 ± 0.82^ac m
The time to reach the escape platform [19]: 115.9 ± 12.51^ac sec
The distance to reach the escape platform [20]: 9.52 ± 1.27^ac m
The time to reach the escape platform [20]: 82.7 ± 15.17^ac sec
The distance to reach the escape platform [21]: 9.46 ± 1.25^ac m
The time to reach the escape platform [21]: 80.6 ± 6.63^ac sec
The distance to reach the escape platform [22]: 12.62 ± 1.21^ac m
The time to reach the escape platform [22]: 106.5 ± 9.79^bc sec
The distance to reach the escape platform [23]: 9.18 ± 1.46^ac m
The time to reach the escape platform [23]: 78.2 ± 8.19^ac sec
The distance to reach the escape platform [24]: 6.56 ± 1.85^ef m
The time to reach the escape platform [24]: 57.2 ± 6.43^ac sec
distances to reach the escape platform, change as compared with neuron apoptosis control (2 mg/kg, trial 1 of 28 days): −14.01%
time to reach the escape platform, change as compared with neuron apoptosis control (2 mg/kg, trial 1 of 28 days): −17.06%
distances to reach the escape platform, change as compared with neuron apoptosis control (2 mg/kg, trial 2 of 14 days): −12.54%
time to reach the escape platform, change as compared with neuron apoptosis control (2 mg/kg, trial 2 of 14 days): −12.06%
distances to reach the escape platform, change as compared with neuron apoptosis control (2 mg/kg, trial 2 of 28 days): −29.65%
time to reach the escape platform, change as compared with neuron apoptosis control (2 mg/kg, trial 2 of 28 days): −31.28%
distances to reach the escape platform, change as compared with neuron apoptosis control (2 mg/kg, trial 3 of 14 days): −20.37%
time to reach the escape platform, change as compared with neuron apoptosis control (2 mg/kg, trial 3 of 14 days): −25.90%
distances to reach the escape platform, change as compared with neuron apoptosis control (2 mg/kg, trial 3 of 28 days): −44.14%
time to reach the escape platform, change as compared with neuron apoptosis control (2 mg/kg, trial 3 of 28 days): −45.32%
